# Tests used:
# [1] = tested on: gene expression in KARPAS422 cells; assay: RNA-seq of drug-treated KARPAS422 cells; format: cell-based, human
# Description: 12. RNA Extraction, qPCR, and Sequencing Library Preparation Cells were plated at 1 M/mL and harvested in TRIsure (Bioline #38033). RNA was extracted using Direct-zol RNA MicroPrep columns (Zymo #R^2062) treated with DNAseI. cDNA was prepared for RT-qPCR using the SensiFAST cDNA preparation kit according to manufacturer instructions (Bioline #65054). 1 μL of cDNA was used per RT-qPCR reaction prepared with SYBR Lo-ROX (Bioline #94020). For sequencing library preparation, polyA-containing transcripts were enriched for (NEB #E7490S) and prepared into paired-end libraries (NEB #E7760S). Libraries were sequenced on an Illumina NovaSeq (Novogene). 13. Western Blots
# (www.bioinformatics.babraham.ac.uk/projects/fastqc/) and trimmed from adapters using cutadapt (Martin, M., EMBnet.journal (2011) 17: 10) using parameters cutadapt—a […] -b (SEQ ID NO:01) […] (SEQ ID NO:02) -nextseq-trim=20-minimum-length 1. Transcripts were quantified using kallisto (Bray et al., Nature Biotechnology (2016) 34: 525-527) against the human Gencode v33 indexed transcriptome and annotations. […] 15. ChIP-Seq Experiment and Library Preparation
# (§1) Because a high percentage of the TCIP1-treated cells contain fragmented DNA by TUNEL assay at 24 hours (FIG. 31, Panel E), many of the “reduced genes” could reflect DNA fragmentation as part of the apoptotic process and digestion to mononucleosomes. Among the group of genes whose expression was most reduced were MYC and its targets (FIGS. 33B, 36C). The top 100 most TCIP1-reduced genes were examined using ChIP-seq data of human transcription factors in blood cancer cell lines, and found the promoters of TCIP1-inhibited genes highly enriched for MYC binding in multiple datasets (FIG. 33, Panel C). This is significant since many DLBCLs are considered to be MYC-dependent.
# Almost all differential genes were increasingly activated at 4 hours compared to negligible effects of the control molecules Neg1 and Neg2 (FIG. 35, Panel B).
# [2] = tested on: DLBCL cells; assay: Killing of DLBCL cell lines (cell viability); format: cell-based
# Description: 30,000 cells were plated in 100 μL media per well of a 96 well plate and treated with drug for indicated times and doses. A resazurin-based indicator of cell health (PrestoBlue, ThermoFisher #P50200) was added for 1.5 hours after which the fluorescence ratio at 560/590 nm was recorded. The background fluorescence was subtracted and the signal was normalized to DMSO-treated cells. EC50 measurements on cell lines were done with 4 biological repeats by separate cell passages maintained by 3 independent investigators. Fit of dose-response curves to data and statistical analysis was performed using drc package in R using the four-parameter log-logistic function.
# It was noted that neither Bl3812 nor JQ1 produced complete loss of cell viability (FIG. 28, Panel A) leaving a resistant population of cells as has been previously reported.
# [3] = Mouse tolerability and pharmacokinetic study; format: in vivo
# Description: Vehicle was the same formulation (5/5/80 DMSO/Tween-80/Saline). The formulation was checked to be a clear solution and after administration, the animal was put back in its cage. For PK properties, plasma levels were measured at 0, 5, 15, 30, 60, 120, 240, 360, and 480 mins after drug administration. For tolerability work, bodyweights and observation of animal health were recorded each day through 5 days of dosing once daily. After 5 days, tissues were collected 8 hours after the last drug administration and split into one part for RNA-seq, homogenized in TRIzoI (Thermo #15596026), another part for histology, snap-frozen, and another part for measurement of drug levels where molar concentrations were recorded with the assumption of 1 g tissue ~1 mL. FFPE blocks (on snap-frozen tissue) and H & E staining were done by the Stanford Histology/Pathology Service Core, by Prof. Hannes Vogel, MD and Pauline Chu.
# After treatment, mouse tissue was harvested for RNA-seq and histology.
# [4] = biological target: T1, bromodomain 1 of BRD4 and BTB domain of BCL6 (Homo sapiens, UniProt O60885+P41182, C67R/C84N/C8Q); assay: TR-FRET assay of ternary complex formation; format: binding; conditions: 1 hr at room temperature, 520 nm/490 nm ratio
# T1 construct: contains amino acids 5-129 with three mutations, C8Q, C67R, C84N
# Description: Reaction was incubated for 1 hr at room temperature, and subsequently the fluorescence at 520 nm and 490 nm was measured. The 520 nm/490 nm ratio is plotted respective to DMSO control. The two lower curves are performed by addition of Neg1 and Neg2 instead of JWZ-7-7. […] The structure of JWZ-7-7 is provided in FIG. 2 and the structures of Neg1 and Neg2 are provided below:
# Each reaction contained 100 nM BRD4^BD1, 100 nM BCL6BTB-Avi-Biot, 20 nM Streptavidin-FITC (Thermo #SA1001), and 1:400 anti-6×His terbium antibody (PerkinElmer #61H12TLF) in 10 μL of buffer containing 20 mM HEPES, 150 mM NaCl, 0.1% BSA, 0.1% NP-40, and 1 mM TCEP in a 384-well plate. Protein was incubated with drug digitally dispensed (Tecan D300e) for 1 hour in the dark at room temperature before excitation at 337 nm and measurement of emission at 520 nm (FITC) and 490 nm (terbium) with a PHERAstar FS plate reader (BMG Labtech). The ratio of signal at 520 nm to 490 nm was calculated and normalized to DMSO-treated conditions, and plotted.
# [5] = tested on: MYC, FOXO3, p21, BCL6, BRD4 protein levels in KARPAS422 and SUDHL5; assay: Western blots of target proteins in DLBCL cells; format: cell-based, human
# Description: Cells were plated at 1 M/mL and treated with drug at indicated timepoints and doses. 2 M Cells were harvested on ice in RIPA buffer (50 mM Tris-HCl pH 8, 150 mM NaCl, 1% NP-40, 0.1% DOC, 1% SDS, protease inhibitor cocktail (homemade), 1 mM DTT) and 1:200 benzonase (Sigma #E1014) was added and incubated for 20 minutes. After 10 minute centrifugation at 14,000 g and 4° C., the supernatant was collected and protein concentration was measured by Bradford.
# as §1
# Signaling via NF-kB is known to be repressed by BCL6.
# [6] = C57BL/6 mice, 10 mg/kg IP once daily for 5 days
# [7] = RNA-seq, 10 mg/kg IP q.d. 5 days
structure (smiles),measurement,setting,value
CNC(=O)COc1cc2cc(Nc3nc(N4CCC(C(=O)NCCCCCCCNC(=O)C[C@@H]5N=C(c6ccc(Cl)cc6)c6c(sc(C)c6C)-n6c(C)nnc65)CC4)ncc3Cl)cc(OC)c2n(C)c1=O [TCIP1],Number of genes activated,"[1]; 10 nM, 2 hours, KARPAS422",140 genes
same,Median change of activated genes,"[1]; 10 nM, 20 hours, KARPAS422",4 fold
same,Number of genes increased in expression,"[1]; 10 nM, 20 hours, KARPAS422","1,674 genes"
same,Number of genes reduced in expression,"[1]; 10 nM, 20 hours, KARPAS422","1,364 genes"
same,Increase of CDKN1A (p21) expression,"[1]; RNA-seq, 20 hours, KARPAS422",about 64 fold
same,EC50,"[2]; DLBCL lines including chemotherapy-resistant, TP53-mutant lines, 72 hrs",1.3 nM
same,Body weight change,[3]; [6],no significant changes in mouse body weight
same,H & E staining and examination of tissue,[3]; [6],did not reveal noticeable abnormalities
same,Tolerability,[3]; [6],well-tolerated with no adverse effects noticed
same,Genes downregulated in the liver,[3]; [7],167 genes
same,Genes downregulated in the lung,[3]; [7],204 genes
same,Genes downregulated in the spleen,[3]; [7],"2,471 genes"
same,Genes upregulated in the liver,[3]; [7],255 genes
same,Genes upregulated in the lung,[3]; [7],301 genes
same,Genes upregulated in the spleen,[3]; [7],"2,785 genes"
same,Ternary complex formation (TR-FRET),[4],detected
same,Time to FOXO3 activation,[5]; 10 nM,within two hours
same,Effect on BRD4 protein levels,"[5]; 20 hours, KARPAS422",did not change substantially
same,Concentration from which the long isoform of BCL6 protein is induced,[5]; DLBCL cell lines,0.5 to 1 nM
same,Concentration that activates FOXO3,[5]; Western blot,0.5 nM
same,Concentration from which MYC protein levels are reduced,"[5]; Western blot, DLBCL cells",less than 1 nM
same,Time to reduction of MYC protein levels,[5]; after drug addition,≤ 2 h
"CNC(=O)COc1cc2cc(Nc3nc(N4CCC(C(=O)NCCCCCCCNC(=O)C[C@@H]5N=C(c6ccc(Cl)cc6)c6c(sc(C)c6C)-n6c(C)nnc65)CC4)ncc3Cl)cc(OC)c2n(C)c1=O [JWZ-7-7, (S)-1-(5-chloro-4-((8-methoxy-1-methyl-3-(2-(methylamino)-2-oxoethoxy)-2-oxo-1,2-dihydroquinolin-6-yl)amino)pyrimidin-2-yl)-N-(7-(2-(4-(4-chlorophenyl)-2,3,9-trimethyl-6H-thieno[3,2-f][1,2,4]triazolo[4,3-a][1,4]diazepin-6-yl)acetamido)heptyl)piperidine-4-carboxamide]",BCL6 repressed genes activated,[1]; RNA-seq,60%
same,Cell killing after short exposure and washout,"[2]; 10 nM, 4 hours exposure followed by washout",robust killing
same,Ternary complex formation (TR-FRET),[4],showed ternary complex formation
same,Concentration that regulates genes critical for DLBCL,"[5]; Karpas 422, 24 hours, Western blot",< 1 NM

# Reference: patent US12685777B2, “Compositions, systems, and methods for modulating a target gene” (The Board of Trustees of the Leland Stanford Junior …, priority 2022, dated 2026)
